Laboratory results: patent US20220098215A1, “DUOCARMYCIN ANALOGUES” (AUCKLAND UNISERVICES LIMITED, priority 2019, published 2022)
“Also recorded” adds a separate entry of the source. Read-outs that look alike come from different tables or passages of the source.

Legend:
cervical carcinoma SiHa = assay: Cytotoxicity: inhibition of proliferation, sulforhodamine B staining; assay type: cell-based, human; conditions: for IC50: Homo sapiens
Procedure: (§1) The cytotoxicity of the payloads of the invention was determined by measuring the inhibition of proliferation of two human tumour cell lines, the cervical carcinoma SiHa, and the ovarian carcinoma SKOV3. Log-phase monolayers were exposed continuously to the payloads for 5 days in 96-well plates, followed by sulforhodamine B staining. The IC50 was determined by interpolation as the drug concentration required to inhibit cell density to 50% of that of the untreated controls on the same plate. Every plate contained the reference compound seco-CBI-TMI as an internal control.
(§2) The cytotoxicity of the payloads of the invention was determined by measuring the inhibition of proliferation of two human tumour cell lines, the cervical carcinoma SiHa, and the ovarian carcinoma SKOV3, following the general procedure described in Example 7. In the new determinations the stock solution of payload in DMSO was diluted in series prior to addition to the cell-containing wells of the 96-well plate. The cytotoxicity determinations were repeated several times (n=3-7 depending on compound and cell line) and the results are collected in Table 4.

ovarian carcinoma SKOV3 = assay: as above; assay type: cell-based, human; conditions: for IC50: Homo sapiens; for differential cytotoxic potency between enantiomers 82 and 83: SKOV3
Procedure: as §1, §2

[1] = Calculated lipophilicity, ChemDraw Professional; conditions: Table 3; difference CBI minus MBO, same side chain
Procedure: The lipophilicity was calculated for the representative compounds of the invention using the ChemDraw Professional v.17.0.0 software package (Perkin Elmer Informatics Inc).
(§3) Lipophilicity of small molecule compounds can be calculated in many different ways (reviewed for example in J. Pharm. Sci. (2009) 98, 861). To complement the data provided in Example 6 the calculated lipophilicity of several compounds of the present invention was compared to that of the seco-CBI analogues bearing the same minor groove binding side chain, using four different software packages, i.e. ChemDraw Professional (Perkin Elmer Informatics Inc) as in Example 6, ACD/log P (Advanced Chemistry Development), XLOGP3 (Shanghai Institute of Organic Chemistry), and MLOGP (Talete SRL, Milano, Italy), with the last three accessed via SwissADME (http://swissadme.ch/, Swiss Institute of Bioinformatics). The structures of the compounds are shown (where DNA binding units A, D, E and F, when attached to the 2-methylbenzoxazole alkylating subunit, represent compounds 23, 59, 66 and 74, respectively) and the calculated log P values are collected in Table 3.

[2] = Calculated lipophilicity, ACD/log P; conditions: Table 3; difference CBI minus MBO, same side chain
Excerpt: as §3

[3] = Aqueous stability in neutral buffer (LC-MS / HPLC); assay type: physicochemical; conditions: 4 μM in Tris buffer (pH 7.4) containing 10% DMF at 37° C., monitored over 300-500 min
Procedure: The aqueous stability of 23 and reference compound seco-CBI-TMI was investigated by LC-MS analysis. Samples containing the payloads at a concentration of 4 μM in Tris buffer (pH 7.4) containing 10% DMF at 37° C. were monitored at regular intervals over 300-500 min.
The aqueous stability of compounds 52, 59 and 66 was investigated by HPLC analysis. The conditions were the same as those described in Example 8, i.e. samples contained the payloads at a concentration of 4 μM in Tris buffer (pH 7.4) containing 10% DMF at 37° C. In this experiment the solutions were monitored at hourly intervals over 8 h.

[4] = Bioorg. Med. Chem. Lett. (2010) 20, 1854; cited from earlier work
[5] = SK-OV-3, Example 25, Table 4, DMSO stock diluted in series before addition, n=3-7, read-out: IC50 SKOV3 Average
[6] = SK-OV-3, 120 h, Example 7, Table 2, continuous exposure 5 days, 96-well plates, read-out: IC50 SKOV3

SMILES: COc1cc2cc(C(=O)N3C[C@H](CCl)c4c3cc(O)c3oc(C)nc43)[nH]c2c(OC)c1OC [Compound 83, (R)-(8-(chloromethyl)-4-hydroxy-2-methyl-7,8-dihydro-6H-oxazolo[4,5-e]indol-6-yl)(5,6,7-trimethoxy-1H-indol-2-yl)methanone]
- differential cytotoxic potency between enantiomers 82 and 83 (cervical carcinoma SiHa): 93 fold
- IC50 (cervical carcinoma SiHa; read-out: IC50 SiHa Average): 14 nM
- IC50 (ovarian carcinoma SKOV3; [5]): 33 nM
- differential cytotoxic potency between enantiomers 82 and 83 (ovarian carcinoma SKOV3): 110 fold

SMILES: COCCOc1ccc2[nH]c(C(=O)N3CC(CCl)c4c3cc(O)c3oc(C)nc43)cc2c1 (stereo not shown) [Compound 66, (8-(Chloromethyl)-4-hydroxy-2-methyl-7,8-dihydro-6H-oxazolo[4,5-e]indol-6-yl)(5-(2-methoxyethoxy)-1H-indol-2-yl)methanone]
- LogP ChemDraw Δ [1]: 1.48
- LogP ACD Δ [2]: 1.67
- IC50 (cervical carcinoma SiHa; read-out: IC50 SiHa Average): 0.2 nM
- IC50 (ovarian carcinoma SKOV3; [5]): 0.17 nM

SMILES: Cc1nc2c3c(cc(OCc4ccccc4)c2o1)N(C(=O)OC(C)(C)C)CC3CCl (stereo not shown)
- melting point: 142 to 143 °C

SMILES: Cc1nc2c3c(cc(O)c2o1)N(C(=O)OC(C)(C)C)CC3CCl (stereo not shown)
- melting point: 234 to 238 °C

SMILES: COc1cc2cc(C(=O)N3CC(CCl)c4c3cc(O)c3ccccc43)[nH]c2c(OC)c1OC (stereo not shown) [Seco-CBI-TMI, reference compound]
- IC50 (cervical carcinoma SiHa; 120 h, read-out: IC50 SiHa): 0.23 nM
- IC50 (cervical carcinoma SiHa; read-out: IC50 SiHa Average): 0.16 nM
- IC50 (ovarian carcinoma SKOV3; [6]): 0.58 nM
- IC50 (ovarian carcinoma SKOV3; [5]): 0.27 nM
- aqueous stability (LC-MS) [3]: clean conversion to the cyclopropyl form (CBI-TMI), which was stable under these conditions; also recorded: prolonged stability

SMILES: COc1ccc(/C=C/C(=O)N2CC(CCl)c3c2cc(O)c2oc(C)nc32)cc1O (stereo not shown) [Compound 59, (E)-1-(8-(Chloromethyl)-4-hydroxy-2-methyl-7,8-dihydro-6H-oxazolo[4,5-e]indol-6-yl)-3-(3-hydroxy-4-methoxyphenyl) prop-2-en-1-one]
- LogP ChemDraw Δ [1]: 1.48
- LogP ACD Δ [2]: 1.61
- IC50 (cervical carcinoma SiHa; read-out: IC50 SiHa Average): 0.62 nM
- IC50 (ovarian carcinoma SKOV3; [5]): 0.5 nM

SMILES: COc1cc2cc(C(=O)N3CC(CCl)c4c3cc(O)c3oc(C)nc43)[nH]c2c(OC)c1OC (stereo not shown) [Compound 23, (8-(Chloromethyl)-4-hydroxy-2-methyl-7,8-dihydro-6H-oxazolo[4,5-e]indol-6-yl)(5,6,7-trimethoxy-1H-indol-2-yl)methanone]
- LogP ChemDraw Δ [1]: 1.48
- LogP ACD Δ [2]: 1.67
- IC50 (cervical carcinoma SiHa; 120 h, read-out: IC50 SiHa): 0.28 nM
- IC50 (cervical carcinoma SiHa; read-out: IC50 SiHa Average): 0.18 nM
- IC50 (ovarian carcinoma SKOV3; [6]): 0.54 nM
- IC50 (ovarian carcinoma SKOV3; [5]): 0.32 nM
- aqueous stability (LC-MS) [3]: not stable under these conditions and was rapidly converted to a variety of products

SMILES: CC(=O)Nc1cnc2[nH]c(C(=O)N3CC(CCl)c4c3cc(O)c3oc(C)nc43)cc2c1 (stereo not shown) [Compound 70, N-(2-(8-(Chloromethyl)-4-hydroxy-2-methyl-7,8-dihydro-6H-oxazolo[4,5-e]indole-6-carbonyl)-1H-pyrrolo[2,3-b]pyridin-5-yl)acetamide]
- IC50 (cervical carcinoma SiHa; read-out: IC50 SiHa Average): > 20 nM
- IC50 (ovarian carcinoma SKOV3; [5]): > 20 nM

SMILES: COc1cc2cc(C(=O)N3C[C@@H](CCl)c4c3cc(O)c3oc(C)nc43)[nH]c2c(OC)c1OC [Compound 82, (S)-(8-(Chloromethyl)-4-hydroxy-2-methyl-7,8-dihydro-6H-oxazolo[4,5-e]indol-6-yl)(5,6,7-trimethoxy-1H-indol-2-yl)methanone]
- differential cytotoxic potency between enantiomers 82 and 83 (cervical carcinoma SiHa): 93 fold
- IC50 (cervical carcinoma SiHa; read-out: IC50 SiHa Average): 0.15 nM
- IC50 (ovarian carcinoma SKOV3; [5]): 0.3 nM
- differential cytotoxic potency between enantiomers 82 and 83 (ovarian carcinoma SKOV3): 110 fold

SMILES: CC(=O)Nc1ccc2nc(C(=O)N3CC(CCl)c4c3cc(O)c3oc(C)nc43)cn2c1 (stereo not shown) [Compound 74, N-(2-(8-(Chloromethyl)-4-hydroxy-2-methyl-7,8-dihydro-6H-oxazolo[4,5-e]indole-6-carbonyl)imidazo[1,2-a]pyridin-6-yl)acetamide]
- LogP ChemDraw Δ [1]: 1.48
- LogP ACD Δ [2]: 1.66
- IC50 (cervical carcinoma SiHa; read-out: IC50 SiHa Average): 13 nM
- IC50 (ovarian carcinoma SKOV3; [5]): 16.4 nM

SMILES: COc1ccc2sc(C(=O)N3CC(CCl)c4c3cc(O)c3oc(C)nc43)cc2c1 (stereo not shown) [Compound 65, (8-(Chloromethyl)-4-hydroxy-2-methyl-7,8-dihydro-6H-oxazolo[4,5-e]indol-6-yl)(5-methoxybenzo[b]thiophen-2-yl)methanone]
- IC50 (cervical carcinoma SiHa; read-out: IC50 SiHa Average): 2.7 nM
- IC50 (ovarian carcinoma SKOV3; [5]): 1.7 nM

SMILES: COc1ccc(/C=C/C(=O)Nc2ccc3[nH]c(C(=O)N4CC(CCl)c5c4cc(O)c4oc(C)nc54)cc3c2)cc1 (stereo not shown) [Compound 63, (E)-N-(2-(8-(Chloromethyl)-4-hydroxy-2-methyl-7,8-dihydro-6H-oxazolo[4,5-e]indole-6-carbonyl)-1H-indol-5-yl)-3-(4-methoxyphenyl)acrylamide]
- IC50 (cervical carcinoma SiHa; read-out: IC50 SiHa Average): 0.69 nM
- IC50 (ovarian carcinoma SKOV3; [5]): 0.61 nM

SMILES: Cc1nc2c3c(cc(O)c2o1)N(C(=O)c1cc2cc(NC(=O)c4cc5cc(OCCN(C)C)ccc5[nH]4)ccc2[nH]1)CC3CCl (stereo not shown) [Compound 53, N-(2-(8-(Chloromethyl)-4-hydroxy-2-methyl-7,8-dihydro-6H-oxazolo[4,5-e]indole-6-carbonyl)-1H-indol-5-yl)-5-(2-(dimethylamino)ethoxy)-1H-indole-2-carboxamide]
- IC50 (cervical carcinoma SiHa; 120 h, read-out: IC50 SiHa): 7.2 nM
- IC50 (cervical carcinoma SiHa; read-out: IC50 SiHa Average): 2.9 nM
- IC50 (ovarian carcinoma SKOV3; [6]): 9 nM
- IC50 (ovarian carcinoma SKOV3; [5]): 4.2 nM

SMILES: COc1cc2cc(C(=O)N3CC(CCl)c4c3cc(OCc3ccccc3)c3oc(C)nc43)[nH]c2c(OC)c1OC (stereo not shown)
- melting point: 225 to 227 °C

SMILES: COC(=O)c1nc2c(O)cc3c(c2o1)C(CCl)CN3C(=O)c1cc2cc(OC)c(OC)c(OC)c2[nH]1 (stereo not shown) [seco-COI-TMI]
- cytotoxicity relative to reference compounds / CBI analogues [4]: several hundred fold less cytotoxic
